Assay results from patent EP4371586B1, “MULTIFUNCTIONAL CHITOSAN COMPOSITES FOR BONE DEFECT FILLING AND BONE TISSUE REGENERATION AND METHODS FOR OBTAINING THEM” (Siec Badawcza Lukasiewicz - Instytut Ceramiki i Materialow …, priority 2022, dated 2024).
Ends that are not written are not given here. Peptide text beside a SMILES is read from it.

What was measured:
[1] = system: Staphylococcus aureus PCM 2602; assay: MIC by microdilution method (CLSI M07-A9); type: cell-based; details: 24 hours at 37 °C, BHI medium, range 3.125 - 250 µg/ml
Description: The antimicrobial properties of the peptide were tested based on Clinical and Laboratory Standards Institute (CLSI) guidelines according to CLSI M07-A9 2012 using the microdilution method. Two bacterial pathogens were used for the study: Gram-positive Staphylococcus aureus PCM 2602 and Gram-negative Pseudomonas aeruginosa PCM 2563.
The bacterial inoculum for the experiment was prepared by direct inoculation of Brain-Heart Infusion medium (BHI) with bacteria from a 24-hour culture on solid medium. The density of the suspension was 0.5 on the McFarland scale. The peptide concentration analysed : 3.125 - 250 µg/ml . Serial dilutions were performed in a 96-well, flat-bottomed, hydrophobic cell culture plate using BHI liquid medium. Then the previously prepared bacterial suspension was added. The final number of pathogens in each well was approximately 5 × 10^5 CFU/ml (Colony Forming Units per millilitre). Microplates were incubated for 24 hours at 37 °C under aerobic conditions. The minimum inhibitory concentration (MIC) for a peptide was defined as the lowest concentration of peptide in a well where no bacterial growth was observed. All experiments were performed in triplicate. Table 3. Minimum microbial growth inhibitory concentration values for peptide ug46 against the bacteria S. aureus PCM 2602 and P. aeruginosa PCM 2563.

[2] = system: hFOB human osteoblast cell line; assay: WST-1 proliferation assay of peptides, indirect method per ISO 10993-5; type: cell-based; details: % of proliferation of control cells
Description: Cytotoxicity was tested by an indirect method based on the guidelines in ISO 10993- 5 on the hFOB human osteoblast cell line (ATCC) using the LDH assay (Roche). The results presented were averaged from two technical repeats and presented as % relative to control cells treated with 1% Triton X- 100 solution. proliferation was tested by an indirect method based on the guidelines in ISO 10993- 5 on the hFOB human osteoblast cell line (ATCC) using the WST-1 assay (Abcam). The results shown were averaged from two technical repeats and presented as % in relation to control cells cultured without added peptides.
Proliferation and cytotoxicity data were analysed and visualised using GraphPad Prism 8 software (GraphPad Software, USA). Statistical analysis was performed using the Kruskal- Wallis test (p = 0.05). In the next step, the Benjamini, Krieger and Yekutielli multiple comparisons test was performed to control the false discovery rate (p = 0.05). Comparisons were made between results obtained for individual peptide concentrations.

Compound: CC[C@H](C)[C@H](NC(=O)CNC(=O)[C@H](C)NC(=O)[C@H](CCC(N)=O)NC(C)=O)C(=O)N[C@H](C(=O)N[C@H](C(=O)N1CCC[C@H]1C(=O)N[C@@H](CC(C)C)C(=O)NCC(=O)N[C@@H](CC(C)C)C(=O)NCC(=O)N[C@@H](CC(C)C)C(=O)N[C@@H](CC(C)C)C(=O)N[C@@H](CCCCN)C(=O)N[C@@H](CCCNC(=N)N)C(=O)N[C@H](C(=O)N[C@@H](CCCCN)C(=O)N[C@H](C(=O)N[C@@H](CC(C)C)C(=O)N[C@@H](CC(C)C)C(N)=O)[C@@H](C)O)[C@@H](C)CC)C(C)C)C(C)C [ug46] (Ac-QAGIVVPLGLGLLKRIKTLL-NH2)
- Minimum inhibitory concentration of microorganisms (MIC) S. aureus PCM 2602 [1]: 100 µg/mL

Compound: CPLGLYGFGG [ug4, engineered pro-regenerative peptide]
- proliferation ([2]; any ug1/ug4 peptide concentration (none lower)): ≥ 70%
- proliferation ([2]; most concentrations of ug1/ug4 peptide): above 100%
